From patent publication US20250188069A1, “COMPOUNDS AND METHODS FOR DEGRADING CASEIN KINASE 1 ALPHA” (PIN THERAPEUTICS, INC., priority 2022, published 2025) come the findings set out here.

Where a name gives a salt, the structure may show the parent alone. Read-outs that look alike come from different tables or passages of the source.

One assay relates to MV-4-11 cells. Put plainly: AML cell viability assay (RealTime-Glo). In kind it is cell-based. The following applies: Homo sapiens, read-out: Cell viability classification.
For another assay, the target named is CK1α (Homo sapiens, UniProt P48729+Q96SW2). In words: CK1α degradation, flow cytometry in MV4-11 cells. In kind it is cell-based. Further details: CK1α levels were determined in MV-4-11 cells using Jess (Protein Simple); host or cells: MV-4-11. Particulars: % reduction of CK1α compared to DMSO, MV4-11 cells at 316 nM for 16 hours, read-out: CK1α degradation classification. On the procedure: MV-4-11 cells were obtained from ATCC and grown in IMDM supplemented with 10% FBS. The cells were maintained at 37° C. under 5% CO2.
Chain of CK1α (P48729 whole entry): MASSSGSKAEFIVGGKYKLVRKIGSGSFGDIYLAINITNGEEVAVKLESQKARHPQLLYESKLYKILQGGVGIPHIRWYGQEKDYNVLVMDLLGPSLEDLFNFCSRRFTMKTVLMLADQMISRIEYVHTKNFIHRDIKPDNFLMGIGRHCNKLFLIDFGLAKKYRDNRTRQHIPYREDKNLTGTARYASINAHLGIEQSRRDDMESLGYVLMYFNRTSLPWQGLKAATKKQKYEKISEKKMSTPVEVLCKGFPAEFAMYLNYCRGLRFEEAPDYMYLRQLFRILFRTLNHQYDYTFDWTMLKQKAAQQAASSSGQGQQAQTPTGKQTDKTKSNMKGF
Chain of CK1α (Q96SW2 whole entry): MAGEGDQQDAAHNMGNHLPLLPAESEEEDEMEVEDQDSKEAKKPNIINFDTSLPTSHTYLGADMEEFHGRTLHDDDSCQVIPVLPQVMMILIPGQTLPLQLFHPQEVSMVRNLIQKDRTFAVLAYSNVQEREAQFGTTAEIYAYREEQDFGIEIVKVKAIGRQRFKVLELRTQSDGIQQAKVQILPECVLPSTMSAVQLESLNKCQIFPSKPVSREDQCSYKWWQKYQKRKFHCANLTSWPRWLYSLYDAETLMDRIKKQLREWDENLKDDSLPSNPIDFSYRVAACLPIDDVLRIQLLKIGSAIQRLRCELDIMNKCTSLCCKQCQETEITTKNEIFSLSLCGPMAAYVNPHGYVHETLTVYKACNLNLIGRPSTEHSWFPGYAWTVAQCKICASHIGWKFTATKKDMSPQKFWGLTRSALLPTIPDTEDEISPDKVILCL
Chain of CK1α (Q16531 whole entry partner): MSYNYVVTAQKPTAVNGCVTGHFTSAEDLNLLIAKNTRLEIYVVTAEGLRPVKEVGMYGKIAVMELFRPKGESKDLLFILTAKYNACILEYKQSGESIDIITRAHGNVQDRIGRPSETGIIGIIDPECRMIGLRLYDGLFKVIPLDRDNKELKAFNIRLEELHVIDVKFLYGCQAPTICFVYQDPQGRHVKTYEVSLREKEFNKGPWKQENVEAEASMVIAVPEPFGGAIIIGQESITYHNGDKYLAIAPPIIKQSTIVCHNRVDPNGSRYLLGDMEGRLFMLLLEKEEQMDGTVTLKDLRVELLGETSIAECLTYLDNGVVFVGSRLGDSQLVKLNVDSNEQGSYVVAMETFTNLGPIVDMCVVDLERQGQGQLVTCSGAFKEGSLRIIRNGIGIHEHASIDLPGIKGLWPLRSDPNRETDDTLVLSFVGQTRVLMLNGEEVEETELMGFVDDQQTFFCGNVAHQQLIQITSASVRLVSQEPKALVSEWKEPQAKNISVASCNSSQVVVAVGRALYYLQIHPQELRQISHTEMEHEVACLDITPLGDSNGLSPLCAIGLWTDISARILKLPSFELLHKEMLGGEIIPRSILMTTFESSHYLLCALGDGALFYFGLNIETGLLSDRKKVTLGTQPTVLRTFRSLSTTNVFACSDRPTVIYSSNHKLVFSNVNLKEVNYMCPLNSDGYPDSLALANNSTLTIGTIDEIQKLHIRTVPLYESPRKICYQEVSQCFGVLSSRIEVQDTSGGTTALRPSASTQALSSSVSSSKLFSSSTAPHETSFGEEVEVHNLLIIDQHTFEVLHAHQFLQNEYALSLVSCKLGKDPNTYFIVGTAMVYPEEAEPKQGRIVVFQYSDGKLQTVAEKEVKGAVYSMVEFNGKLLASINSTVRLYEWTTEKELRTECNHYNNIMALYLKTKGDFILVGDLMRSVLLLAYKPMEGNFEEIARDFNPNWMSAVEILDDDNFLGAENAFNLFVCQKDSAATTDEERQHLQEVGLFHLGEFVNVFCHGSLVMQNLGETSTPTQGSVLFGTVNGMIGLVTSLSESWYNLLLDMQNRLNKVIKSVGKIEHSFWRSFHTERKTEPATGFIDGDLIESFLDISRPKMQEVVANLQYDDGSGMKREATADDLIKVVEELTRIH
Compounds of the present disclosure were added to cells (final DMSO concentration of 0.5%) and incubated for 16 hours. CK1α level was determined in MV4-11 cells using flow cytometry (Luminex, Guava EasyCyte Plus). Briefly, cells were prepared with sequential 10% formalin and 70% methanol fixation. […] GuavaSoft Incyte software was used to analyse the flow cytometry data. Protein levels relative to DMSO are calculated for CK1α.
The efficacy of CK1α degradation of other part of compounds of the present disclosure was determined by treating MV4-11 cells at […] (Final DMSO concentration of 0.5%) for 16 hours. Protein levels relative to DMSO are calculated for CK1α.
Protein levels relative to DMSO are calculated for CK1α.
A general note: Flow cytometry measures light scatter and fluorescence of single cells or particles in a stream.

Setting [1] is: MV4-11, IC50 class, MV-4-11 cells, RealTime-Glo after 44 hrs of treatment (TABLE 3).

Regarding `O=C1CCC(N2Cc3c(cccc3N(CCC3CC3)[C@H]3CC[C@@H](NC4CC(F)(F)C4)CC3)C2=O)C(=O)N1` (stereo partly shown) [Compound 515A, 3-(4-((2-cyclopropylethyl)((1s,4s)-4-((3,3-difluorocyclobutyl)amino)cyclohexyl)amino)-1-oxoisoindolin-2-yl)piperidine-2,6-dione formate], the IC50 with MV-4-11 cells (setting [1]) was 100 to 1000 nM. For the same compound, the Dmax at 0.316 µM at CK1α was 50 to 75%.
As for `O=C1CCC(N2Cc3c(cccc3N(CCC3CC3)[C@H]3CC[C@H](NCCC(F)(F)F)CC3)C2=O)C(=O)N1` (stereo partly shown) [Compound 516, 3-{4-[(2-cyclopropylethyl)[(1r,4r)-4-[(3,3,3-trifluoropropyl)amino]cyclohexyl]amino]-1-oxo-3H-isoindol-2-yl}piperidine-2,6-dione], in the assay with MV-4-11 cells (setting [1]), the IC50 was under 100 nM. At CK1α, the Dmax at 0.316 µM is over 75%.
For `O=C1CCC(N2Cc3c(cccc3N(CCC3CC3)[C@H]3CC[C@H](NC4COC4)CC3)C2=O)C(=O)N1` (stereo partly shown) [Compound 517, 3-(4-((2-cyclopropylethyl)((1r,4r)-4-(oxetan-3-ylamino)cyclohexyl)amino)-1-oxoisoindolin-2-yl)piperidine-2,6-dione], in that order: under 100 nM and over 75%.
On the same counts, the results for `NCC(F)(F)CCN(CCC1CC1)c1cccc2c1CN(C1CCC(=O)NC1=O)C2=O` (stereo not shown) [Compound 518, 3-(4-((4-amino-3,3-difluorobutyl)(2-cyclopropylethyl)amino)-1-oxoisoindolin-2-yl)piperidine-2,6-dione] are 100 to 1000 nM and over 75%.
For the compound `NCC(CCN(CCC1CC1)c1cccc2c1CN(C1CCC(=O)NC1=O)C2=O)C(F)(F)F` (stereo not shown) [Compound 519, 3-(4-{[4-amino-3-(trifluoromethyl)butyl](2-cyclopropylethyl)amino}-1-oxo-3H-isoindol-2-yl)piperidine-2,6-dione], in the assay on MV-4-11 cells (MV4-11, 44 h), the IC50 was 100 to 1000 nM. The Dmax at 0.316 µM at CK1α is 50 to 75%.
Turning to `N[C@@H]1CC[C@@H](N(CCC2CC2)c2cccc3c2CN(C2CCC(=O)NC2=O)C3=O)C[C@H]1F` (stereo partly drawn) [Compound 521, 3-(4-(((1R,3R,4R)-4-amino-3-fluorocyclohexyl)(2-cyclopropylethyl)amino)-1-oxoisoindolin-2-yl)piperidine-2,6-dione; formic acid], in the assay on MV-4-11 cells (setting [1]), the IC50 was under 100 nM. Besides, the Dmax at 0.316 µM at CK1α was over 75%.
With `NC[C@H]1CC[C@@H](N(CCC2CC2)c2cccc3c2CN(C2CCC(=O)NC2=O)C3=O)CO1` (stereo partly drawn) [Compound 522, 3-(4-{[(3R,6R)-6-(aminomethyl)oxan-3-yl](2-cyclopropylethyl)amino}-1-oxo-3H-isoindol-2-yl)piperidine-2,6-dione], the IC50 in the assay with MV-4-11 cells (setting [1]) was under 100 nM. Moreover, on CK1α, the Dmax at 0.316 µM is over 75%.
On the same counts, the results for `NC[C@]1(O)CC[C@H](N(CCC2CC2)c2cccc3c2CN(C2CCC(=O)NC2=O)C3=O)CC1` (stereo partly shown) [Compound 523, 3-(4-(((1r,4r)-4-(aminomethyl)-4-hydroxycyclohexyl)(2-cyclopropylethyl)amino)-1-oxoisoindolin-2-yl)piperidine-2,6-dione] are 100 to 1000 nM and 50 to 75%.
For the compound `NC[C@]1(O)CC[C@H](N(CCCC(F)(F)F)c2cccc3c2CN(C2CCC(=O)NC2=O)C3=O)CC1` (stereo partly shown) [Compound 530, 3-(4-(((1r,4r)-4-(aminomethyl)-4-hydroxycyclohexyl)(4,4,4-trifluorobutyl)amino)-1-oxoisoindolin-2-yl)piperidine-2,6-dione], the IC50 in the assay on MV-4-11 cells (setting [1]) was over 1000 nM. For the same compound, at CK1α, the Dmax at 0.316 µM was under 50%.
On the same counts, the results for `O=C1CCC(N2Cc3c(cccc3N(CC3CC3)[C@H]3CC[C@H](NC4CC(F)(F)C4)CC3)C2=O)C(=O)N1` (stereo partly shown) [Compound 532, 3-(4-((cyclopropylmethyl)((lr,4r)-4-((3,3-difluorocyclobutyl)amino)cyclohexyl)amino)-1-oxoisoindolin-2-yl)piperidine-2,6-dione] are under 100 nM and over 75%.
`O=C1CCC(N2Cc3c(cccc3N(CC3CC3)[C@H]3CC[C@H](NCCC(F)(F)F)CC3)C2=O)C(=O)N1` (stereo partly shown) [Compound 533, 3-(4-((cyclopropylmethyl)((1r,4r)-4-((3,3,3-trifluoropropyl)amino)cyclohexyl)amino)-1-oxoisoindolin-2-yl)piperidine-2,6-dione]: the IC50 with MV-4-11 cells (setting [1]) is under 100 nM. In addition, the Dmax at 0.316 µM at CK1α was over 75%.
For `O=C1CCC(N2Cc3c(cccc3N(CC3CC3)[C@H]3CC[C@H](NC4COC4)CC3)C2=O)C(=O)N1` (stereo partly shown) [Compound 534, 3-(4-((cyclopropylmethyl)((1r,4r)-4-(oxetan-3-ylamino)cyclohexyl)amino)-1-oxoisoindolin-2-yl)piperidine-2,6-dione], in that order: under 100 nM and over 75%.
For `N[C@@H]1CC[C@@H](N(CC2CC2)c2cccc3c2CN(C2CCC(=O)NC2=O)C3=O)C[C@H]1F` (stereo partly drawn) [Compound 535, 3-(4-(((1R,3R,4R)-4-amino-3-fluorocyclohexyl)(cyclopropylmethyl)amino)-1-oxoisoindolin-2-yl)piperidine-2,6-dione; formic acid], in that order: under 100 nM and 50 to 75%.
On the same counts, the results for `NC[C@]1(O)CC[C@H](N(CC2CC2)c2cccc3c2CN(C2CCC(=O)NC2=O)C3=O)CC1` (stereo partly shown) [Compound 536, 3-(4-(((1r,4r)-4-(aminomethyl)-4-hydroxycyclohexyl)(cyclopropylmethyl)amino)-1-oxoisoindolin-2-yl)piperidine-2,6-dione] are 100 to 1000 nM and under 50%.
For the compound `O=C1CCC(N2Cc3c(cccc3N(CCC3CC3)[C@H]3CC[C@H](NCC(F)F)CC3)C2=O)C(=O)N1` (stereo partly shown) [Compound 539, 3-{4-[(2-cyclopropylethyl)[(1s,4s)-4-[(2,2-difluoroethyl)amino]cyclohexyl]amino]-1-oxo-3H-isoindol-2-yl}piperidine-2,6-dione], the IC50 in the assay on MV-4-11 cells (setting [1]) lay in the range of 100 to 1000 nM. Further, the Dmax at 0.316 µM at CK1α was in the range of 50 to 75%.
For `O=C1CCC(N2Cc3c(cccc3N(CCC3CC3)[C@H]3CC[C@@H](NCC(F)F)CC3)C2=O)C(=O)N1` (stereo partly shown) [Compound 539A, 3-{4-[(2-cyclopropylethyl)[(1r,4r)-4-[(2,2-difluoroethyl)amino]cyclohexyl]amino]-1-oxo-3H-isoindol-2-yl}piperidine-2,6-dione], in that order: under 100 nM and over 75%.
`O=C1CCC(N2Cc3c(cccc3N(CCC3CC3)[C@H]3CC[C@H](NC(CF)CF)CC3)C2=O)C(=O)N1` (stereo partly shown) [Compound 540, 3-{4-[(2-cyclopropylethyl)[(1r,4r)-4-[(1,3-difluoropropan-2-yl)amino]cyclohexyl]amino]-1-oxo-3H-isoindol-2-yl}piperidine-2,6-dione]: the IC50 in the assay on MV-4-11 cells (MV4-11, 44 h) was in the range of 100 to 1000 nM. The Dmax at 0.316 µM at CK1α was 50 to 75%.
`COC(C)(C)CN[C@H]1CC[C@H](N(CCC2CC2)c2cccc3c2CN(C2CCC(=O)NC2=O)C3=O)CC1` (stereo partly shown) [Compound 541, 3-(4-((2-cyclopropylethyl)((1r,4r)-4-((2-methoxy-2-methylpropyl)amino)cyclohexyl)amino)-1-oxoisoindolin-2-yl)piperidine-2,6-dione]: the IC50 in the assay on MV-4-11 cells (setting [1]) was under 100 nM. Moreover, the Dmax at 0.316 µM on CK1α was over 75%.
For `COC(C)(C)CN[C@H]1CC[C@@H](N(CCC2CC2)c2cccc3c2CN(C2CCC(=O)NC2=O)C3=O)CC1` (stereo partly shown) [Compound 541A, 3-(4-((2-cyclopropylethyl)((1s,4s)-4-((2-methoxy-2-methylpropyl)amino)cyclohexyl)amino)-1-oxoisoindolin-2-yl)piperidine-2,6-dione], in that order: 100 to 1000 nM and 50 to 75%.
With `COCCN[C@H]1CC[C@H](N(CCC2CC2)c2cccc3c2CN(C2CCC(=O)NC2=O)C3=O)CC1` (stereo partly shown) [Compound 542, 3-{4-[(2-cyclopropylethyl)[(1r,4r)-4-[(2-methoxyethyl)amino]cyclohexyl]amino]-1-oxo-3H-isoindol-2-yl}piperidine-2,6-dione], the IC50 with MV-4-11 cells (setting [1]) was under 100 nM. Further, the Dmax at 0.316 µM at CK1α was over 75%.
In the case of `N#CCCCN[C@H]1CC[C@H](N(CCC2CC2)c2cccc3c2CN(C2CCC(=O)NC2=O)C3=O)CC1` (stereo partly shown) [Compound 543, 4-{[(1r,4r)-4-[(2-cyclopropylethyl)[2-(2,6-dioxopiperidin-3-yl)-1-oxo-3H-isoindol-4-yl]amino]cyclohexyl]amino}butanenitrile], the IC50 with MV-4-11 cells (setting [1]) was under 100 nM. The Dmax at 0.316 µM on CK1α is over 75%.
For `O=C1CCC(N2Cc3c(cccc3N(CCC3CC3)[C@H]3CC[C@H](NCC(=O)N4CCC4)CC3)C2=O)C(=O)N1` (stereo partly shown) [Compound 546, 3-{4-[(2-cyclopropylethyl)[(1r,4r)-4-{[2-(azetidin-1-yl)-2-oxoethyl]amino}cyclohexyl]amino]-1-oxo-3H-isoindol-2-yl}piperidine-2,6 dione], the IC50 in the assay on MV-4-11 cells (setting [1]) was under 100 nM. Moreover, the Dmax at 0.316 µM on CK1α was over 75%.
For `CC(CC(F)(F)F)N[C@H]1CC[C@H](N(CCC2CC2)c2cccc3c2CN(C2CCC(=O)NC2=O)C3=O)CC1` (stereo partly shown) [Compound 547, 3-{4-[(2-cyclopropylethyl)[(1r,4r)-4-[(4,4,4-trifluorobutan-2-yl)amino]cyclohexyl]amino]-1-oxo-3H-isoindol-2-yl}piperidine-2,6-dione], in that order: under 100 nM and over 75%.
